Measurements reported in ChEMBL document CHEMBL1909046, “DrugMatrix in vitro pharmacology data”.

Columns and labels:
[1] = DRUGMATRIX: beta-Lactamase enzyme inhibition (substrate: Nitrocefin); parameters: species or system Bacillus cereus; conditions: Not Active = under 50% inhibition at 10 µM
[2] = biological target: Cannabinoid receptor 1 (Homo sapiens, UniProt P21554); type: cell membranes, Chem-1, Membrane; conditions: chem-1; note: in other assays of this panel Not Active means under 50% inhibition at 10 µM
Chain of Cannabinoid receptor 1 (P21554 whole entry): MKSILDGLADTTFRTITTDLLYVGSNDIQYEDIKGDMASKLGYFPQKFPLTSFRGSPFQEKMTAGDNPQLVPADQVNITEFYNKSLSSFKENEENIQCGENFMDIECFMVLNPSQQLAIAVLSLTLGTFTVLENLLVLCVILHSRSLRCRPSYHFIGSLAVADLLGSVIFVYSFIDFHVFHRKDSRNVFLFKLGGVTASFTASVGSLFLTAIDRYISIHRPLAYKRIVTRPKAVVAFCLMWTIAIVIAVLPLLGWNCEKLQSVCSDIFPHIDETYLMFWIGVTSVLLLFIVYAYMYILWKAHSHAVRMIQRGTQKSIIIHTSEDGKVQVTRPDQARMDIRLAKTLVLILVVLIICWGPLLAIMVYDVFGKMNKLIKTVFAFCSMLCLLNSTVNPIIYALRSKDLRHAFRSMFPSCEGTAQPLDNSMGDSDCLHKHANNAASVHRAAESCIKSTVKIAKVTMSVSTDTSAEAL

[3] = biological target: Melanocortin receptor 3 (Homo sapiens, UniProt P41968); type: cell membranes, HEK293, Membrane; conditions: hek293; note: in other assays of this panel Not Active means under 50% inhibition at 10 µM
Chain of Melanocortin receptor 3 (P41968 whole entry): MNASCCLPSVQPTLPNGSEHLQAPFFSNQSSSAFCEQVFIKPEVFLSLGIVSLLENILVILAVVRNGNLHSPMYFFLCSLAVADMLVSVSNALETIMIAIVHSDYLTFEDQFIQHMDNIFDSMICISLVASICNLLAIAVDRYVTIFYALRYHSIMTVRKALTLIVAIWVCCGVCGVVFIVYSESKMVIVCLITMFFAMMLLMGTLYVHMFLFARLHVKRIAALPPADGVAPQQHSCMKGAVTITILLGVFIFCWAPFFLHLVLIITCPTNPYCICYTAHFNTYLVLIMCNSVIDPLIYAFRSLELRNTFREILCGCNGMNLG

[4] = biological target: Melanocortin receptor 4 (Homo sapiens, UniProt P32245); type: cell membranes, HEK293, Membrane; conditions: hek293; note: in other assays of this panel Not Active means under 50% inhibition at 10 µM
Chain of Melanocortin receptor 4 (P32245 whole entry): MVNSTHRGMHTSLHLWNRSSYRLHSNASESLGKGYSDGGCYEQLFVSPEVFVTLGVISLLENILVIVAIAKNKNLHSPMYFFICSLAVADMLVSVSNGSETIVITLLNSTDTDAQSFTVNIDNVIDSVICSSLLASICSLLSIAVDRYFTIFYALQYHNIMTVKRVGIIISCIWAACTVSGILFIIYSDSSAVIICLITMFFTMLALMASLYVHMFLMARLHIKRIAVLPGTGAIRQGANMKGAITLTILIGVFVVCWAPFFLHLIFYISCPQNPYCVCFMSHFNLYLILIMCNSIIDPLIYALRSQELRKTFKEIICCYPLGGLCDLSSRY

[5] = biological target: Tyrosine-protein kinase Fyn (Homo sapiens, UniProt P06241); assay: biochemical; type: cell-based, Insect cells;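 note: enzymatic inhibition of Fyn kinase activity measured with Poly(Glu:Tyr) as the phosphorylation substrate; in other assays of this panel Not Active means under 50% inhibition at 10 µM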
Chain of Tyrosine-protein kinase Fyn (P06241 whole entry): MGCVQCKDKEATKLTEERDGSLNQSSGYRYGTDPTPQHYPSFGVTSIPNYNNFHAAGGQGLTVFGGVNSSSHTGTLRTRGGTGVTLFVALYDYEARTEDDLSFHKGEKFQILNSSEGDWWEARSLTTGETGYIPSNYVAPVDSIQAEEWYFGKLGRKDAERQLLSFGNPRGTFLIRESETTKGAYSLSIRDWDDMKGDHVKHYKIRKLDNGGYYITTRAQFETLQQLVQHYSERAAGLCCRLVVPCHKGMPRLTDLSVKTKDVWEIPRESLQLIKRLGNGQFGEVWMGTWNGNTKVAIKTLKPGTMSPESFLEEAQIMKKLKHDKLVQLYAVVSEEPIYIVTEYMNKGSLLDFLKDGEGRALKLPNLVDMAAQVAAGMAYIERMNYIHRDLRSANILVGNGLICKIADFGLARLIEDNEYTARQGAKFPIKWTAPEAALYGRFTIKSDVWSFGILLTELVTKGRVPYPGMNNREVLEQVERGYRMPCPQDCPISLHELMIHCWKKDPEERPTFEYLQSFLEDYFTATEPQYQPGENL

[6] = biological target: Cytochrome P450 2C19 (Homo sapiens, UniProt P33261); conditions: bti-tn-5b1-4; note: in other assays of this panel Not Active means under 50% inhibition at 10 µM
Chain of Cytochrome P450 2C19 (P33261 whole entry): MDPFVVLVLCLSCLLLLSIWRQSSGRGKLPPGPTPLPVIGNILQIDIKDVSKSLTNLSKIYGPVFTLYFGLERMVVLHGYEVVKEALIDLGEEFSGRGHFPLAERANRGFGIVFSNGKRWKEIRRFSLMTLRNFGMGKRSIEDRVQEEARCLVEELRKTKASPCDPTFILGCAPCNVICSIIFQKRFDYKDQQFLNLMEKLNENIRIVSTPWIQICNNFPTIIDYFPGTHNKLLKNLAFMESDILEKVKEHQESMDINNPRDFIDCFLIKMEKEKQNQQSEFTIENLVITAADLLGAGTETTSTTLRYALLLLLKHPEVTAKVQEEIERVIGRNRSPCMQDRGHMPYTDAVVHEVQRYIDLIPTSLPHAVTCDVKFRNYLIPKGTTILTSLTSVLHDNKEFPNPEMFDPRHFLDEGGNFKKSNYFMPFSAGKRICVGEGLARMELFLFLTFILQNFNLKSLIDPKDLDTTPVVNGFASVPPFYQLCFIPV

[7] = biological target: Cytochrome P450 3A4 (Homo sapiens, UniProt P08684); conditions: bti-tn-5b1-4; note: in other assays of this panel Not Active means under 50% inhibition at 10 µM
Chain of Cytochrome P450 3A4 (P08684 whole entry): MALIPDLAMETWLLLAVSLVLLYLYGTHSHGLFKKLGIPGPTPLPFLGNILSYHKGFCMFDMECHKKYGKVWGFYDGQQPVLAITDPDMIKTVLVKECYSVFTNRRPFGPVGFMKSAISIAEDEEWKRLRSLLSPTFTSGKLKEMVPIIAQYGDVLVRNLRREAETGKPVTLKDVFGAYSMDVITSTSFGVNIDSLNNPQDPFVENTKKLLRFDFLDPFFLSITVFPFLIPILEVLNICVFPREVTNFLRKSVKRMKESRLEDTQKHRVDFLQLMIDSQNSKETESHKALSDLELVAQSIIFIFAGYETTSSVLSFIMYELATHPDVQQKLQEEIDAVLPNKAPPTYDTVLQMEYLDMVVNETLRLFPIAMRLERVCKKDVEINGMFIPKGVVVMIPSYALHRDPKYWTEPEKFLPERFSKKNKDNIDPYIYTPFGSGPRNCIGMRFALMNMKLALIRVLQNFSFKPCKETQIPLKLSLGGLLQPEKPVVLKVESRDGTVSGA

Compound	IC50 [1]	Ki [1]	IC50 [2]	IC50 [3]	IC50 [4]	IC50 ([5]; insect cells)	IC50 [6]	Ki [6]	IC50 [7]	Ki [7]	Ki [2]	Ki [3]	Ki [4]	IC50 ([5]; insect cells, read-out: IC50) [µM]	IC50 ([5]; read-out: IC50) [µM]	IC50 ([4]; read-out: IC50) [µM]	Ki ([4]; read-out: Ki) [µM]	Ki ([5]; insect cells)
N=C(N)NC(=O)Cc1c(Cl)cccc1Cl [GUANFACINE]	Not Active	Not Active	Not Active	Not Active	Not Active	Not Active	Not Active	Not Active	Not Active	Not Active	–	–	–	–	–	–	–	–
CCCOc1ccc(C(=O)OCCN(CC)CC)cc1N [PROPARACAINE]	Not Active	Not Active	Not Active	Not Active	Not Active	Not Active	Not Active	Not Active	Not Active	Not Active	–	–	–	–	–	–	–	–
CC(=O)Oc1ccc(C(c2ccc(OC(C)=O)cc2)c2ccccn2)cc1 [BISACODYL]	Not Active	Not Active	Not Active	Not Active	Not Active	Not Active	Not Active	Not Active	Not Active	Not Active	–	–	–	–	–	–	–	–
CN(C)[C@@H]1C(O)=C(C(N)=O)C(=O)[C@@]2(O)C(O)=C3C(=O)c4c(O)ccc(Cl)c4[C@@](C)(O)[C@H]3C[C@@H]12 [CHLORTETRACYCLINE]	Not Active	Not Active	Not Active	Not Active	Not Active	Not Active	Not Active	Not Active	Not Active	Not Active	–	–	–	–	–	–	–	–
CCC1(CCC(C)C)C(=O)NC(=O)NC1=O [AMOBARBITAL]	Not Active	Not Active	Not Active	Not Active	Not Active	Not Active	Not Active	Not Active	Not Active	Not Active	–	–	–	–	–	–	–	–
AURANOFIN	Not Active	Not Active	Not Active	Not Active	Not Active	–	Not Active	Not Active	Not Active	Not Active	Not Active	Not Active	Not Active	1.2	–	–	–	–
O=C/C=C/c1ccccc1	Not Active	Not Active	Not Active	Not Active	Not Active	Not Active	Not Active	Not Active	Not Active	Not Active	–	–	–	–	–	–	–	–
C=CCc1ccc(O)c(OC)c1 [EUGENOL]	Not Active	Not Active	Not Active	Not Active	Not Active	Not Active	Not Active	Not Active	Not Active	Not Active	–	–	–	–	–	–	–	–
Oc1cccc(O)c1O [PYROGALLOL]	Not Active	Not Active	Not Active	Not Active	Not Active	–	Not Active	Not Active	Not Active	Not Active	–	–	–	–	0.997	–	–	–
C[C@]12C=CC(=O)C=C1CC[C@@H]1[C@@H]2[C@@H](O)C[C@@]2(C)[C@H]1CC[C@]2(O)C(=O)CO [PREDNISOLONE]	Not Active	Not Active	Not Active	Not Active	Not Active	Not Active	Not Active	Not Active	Not Active	Not Active	–	–	–	–	–	–	–	–
CC(=O)[C@H]1[C@H](C#N)C[C@H]2[C@@H]3CC=C4C[C@@H](O)CC[C@]4(C)[C@H]3CC[C@@]21C [PREGNENOLONE CARBONITRILE]	Not Active	Not Active	Not Active	Not Active	Not Active	Not Active	Not Active	Not Active	Not Active	Not Active	–	–	–	–	–	–	–	–
CC(C(=O)O)c1cccc(Oc2ccccc2)c1 (stereo not given) [FENOPROFEN]	Not Active	Not Active	Not Active	Not Active	Not Active	Not Active	Not Active	Not Active	Not Active	Not Active	–	–	–	–	–	–	–	–
NNc1nncc2ccccc12 [HYDRALAZINE]	Not Active	Not Active	Not Active	Not Active	Not Active	Not Active	Not Active	Not Active	Not Active	Not Active	–	–	–	–	–	–	–	–
O=C1O[C@H]([C@@H](O)CO)C(O)=C1O [ASCORBIC ACID]	Not Active	Not Active	Not Active	Not Active	Not Active	Not Active	Not Active	Not Active	Not Active	Not Active	–	–	–	–	–	–	–	–
NC(=O)C[S+]([O-])C(c1ccccc1)c1ccccc1 (stereo not given) [MODAFINIL]	Not Active	Not Active	Not Active	Not Active	Not Active	Not Active	Not Active	Not Active	Not Active	Not Active	–	–	–	–	–	–	–	–
CCN(CC)CCOCCC1=CCC2CC1C2(C)C (stereo not given) [MYRTECAINE]	Not Active	Not Active	Not Active	Not Active	Not Active	Not Active	Not Active	Not Active	Not Active	Not Active	–	–	–	–	–	–	–	–
COc1ccc2cc3[n+](cc2c1OC)CCc1cc2c(cc1-3)OCO2.[Cl-] [BERBERINE CHLORIDE]	Not Active	Not Active	Not Active	Not Active	Not Active	Not Active	Not Active	Not Active	Not Active	Not Active	–	–	–	–	–	–	–	–
GRAMICIDIN	Not Active	Not Active	Not Active	Not Active	–	–	Not Active	Not Active	Not Active	Not Active	Not Active	Not Active	–	3.33	–	3.31	3.19	–
CCC1(C)CC(=O)NC1=O (stereo not given) [ETHOSUXIMIDE]	Not Active	Not Active	Not Active	Not Active	Not Active	Not Active	Not Active	Not Active	Not Active	Not Active	–	–	–	–	–	–	–	–
Cc1nnc2n1-c1ccc(Cl)cc1C(c1ccccc1)=NC2 [ALPRAZOLAM]	Not Active	Not Active	Not Active	Not Active	Not Active	Not Active	Not Active	Not Active	Not Active	Not Active	–	–	–	–	–	–	–	–
GENTAMICIN	Not Active	Not Active	Not Active	Not Active	Not Active	Not Active	Not Active	Not Active	Not Active	Not Active	Not Active	Not Active	Not Active	–	–	–	–	Not Active
CC(C)NNC(=O)c1ccncc1 [IPRONIAZID]	Not Active	Not Active	Not Active	Not Active	Not Active	Not Active	Not Active	Not Active	Not Active	Not Active	–	–	–	–	–	–	–	–
O=c1cc(N2CCOCC2)oc2c(-c3ccccc3)cccc12 [LY-294002]	Not Active	Not Active	Not Active	Not Active	Not Active	Not Active	Not Active	Not Active	Not Active	Not Active	–	–	–	–	–	–	–	–
Nc1ccc2c3c(cccc13)C(=O)NC2=O	Not Active	Not Active	Not Active	Not Active	Not Active	Not Active	Not Active	Not Active	Not Active	Not Active	–	–	–	–	–	–	–	–
CC[C@H](C)[C@H]1O[C@]2(C=C[C@@H]1C)C[C@@H]1C[C@@H](C/C=C(\C)[C@@H](O[C@H]3C[C@H](OC)[C@@H](O[C@H]4C[C@H](OC)[C@@H](O)[C@H](C)O4)[C@H](C)O3)[C@@H](C)/C=C/C=C3\CO[C@@H]4[C@H](O)C(C)=C[C@@H](C(=O)O1)[C@]34O)O2.CO[C@H]1C[C@H](O[C@H]2[C@H](C)O[C@@H](O[C@@H]3/C(C)=C/C[C@@H]4C[C@@H](C[C@]5(C=C[C@H](C)[C@@H](C(C)C)O5)O4)OC(=O)[C@@H]4C=C(C)[C@@H](O)[C@H]5OC/C(=C\C=C\[C@@H]3C)[C@]54O)C[C@@H]2OC)O[C@@H](C)[C@@H]1O [ABAMECTIN]	Not Active	Not Active	Not Active	Not Active	Not Active	Not Active	Not Active	Not Active	Not Active	Not Active	–	–	–	–	–	–	–	–
Cn1c(=O)c2[nH]cnc2n(C)c1=O.Cn1c(=O)c2[nH]cnc2n(C)c1=O.NCCN [AMINOPHYLLINE]	Not Active	Not Active	Not Active	Not Active	Not Active	Not Active	Not Active	Not Active	Not Active	Not Active	–	–	–	–	–	–	–	–
C#C[C@]1(OC(C)=O)CC[C@H]2[C@@H]3CCC4=C[C@@H](OC(C)=O)CC[C@@H]4[C@H]3CC[C@@]21C [ETHYNODIOL DIACETATE]	Not Active	Not Active	Not Active	Not Active	Not Active	Not Active	Not Active	Not Active	Not Active	Not Active	–	–	–	–	–	–	–	–
